The source of these data is ChEMBL document CHEMBL5375951, “Beware the Receptor Variants” (J Med Chem, 2023).

Assay [1] is described as follows: Agonist activity at MRGPRX4 83S expressed in human HEK293 cells co- expressing Gq assessed as change in intracellular calcium level by calcium mobilization assay. In kind it is cell-based.
Assay [2] can be described thus: Agonist activity at MRGPRX4 83L expressed in human HEK293 cells co- expressing Gq assessed as change in intracellular calcium level by calcium mobilization assay. It is filed as cell-based.

With `COc1cccc(CCc2nc3c([nH]2)c(=O)n(CC#N)c(=O)n3CCCCP(=O)(O)O)c1`, the EC50 in assay [1] came to 0.0112 µM; in assay [2] it was 435 nM.
Consider `CC12CC3CC(C)(C1)CC(C(=O)N[C@H](Cc1ccccc1)C(=O)O)(C3)C2`, for which the EC50 in assay [1] is 13.3 µM; in assay [2], 6.56 nM.
For the compound `C[C@H](CCC(=O)O)[C@H]1CC[C@H]2[C@@H]3CC[C@@H]4C[C@H](O)CC[C@]4(C)[C@H]3C[C@H](O)[C@]12C` [DEOXYCHOLIC ACID], the EC50 in assay [1] came out at 16.9 µM.
The same measure, in the same setting: the value for `CC(C)[C@H]1CC[C@H](C(=O)N[C@H](Cc2ccccc2)C(=O)O)CC1` [NATEGLINIDE] was greater than 10 µM.
As to `C[C@H](CCC(=O)NCCS(=O)(=O)O)[C@H]1CC[C@H]2[C@@H]3CC[C@@H]4C[C@H](O)CC[C@]4(C)[C@H]3C[C@H](O)[C@]12C` [TAURODEOXYCHOLIC ACID], the EC50 in assay [1] is greater than 10 µM; in assay [2] it was greater than 10000 nM.
